Results published in patent EP0046242A1, “Anti-tumor agent comprising an organosilicon compound” (Shin-Etsu Chemical Co., Ltd., priority 1980, dated 1982).
≈ marks a conversion by molar mass, not a printed value. Structures can show the parent of a compound that is named as a salt.

Legend:
[1] = tested on: B-16 melanoma cells implanted in mice; assay: Animal test of growth inhibition of implanted B-16 melanoma in mice; format: in vivo; conditions: tumor weight vs control at day 14; for inhibition in vivo at 100 mg: Mus musculus, B16, read-out: Tumor inhibiting efficiency, female BDF1-JCR mice, 1 x 10^5 B-16 cells subcutaneously; for Tumor inhibiting efficiency: female BDF1-JCR mice
Procedure: Animal tests were conducted to examine the activity of several compounds including 2-(2-aminoethylthio)ethyl trimethyl silane in the inhibiting power against the growth of the B-16 melanoma cells implanted in mice as the test animals.
Thus each of 12 female mice of the BDF1-JCR lineage was implanted subcutaneously with 1 x 10^5 cells of the B-16 black tumor.
Six of the thus treated mice were bred as such as a control group and the other six mice as the test group were orally administrated once a day with 100 mg of the test compound for 5 days beginning with the second day of the implantation.
The results of the tests were expressed by the tumor inhibiting efficiency in % calculated by the following equation, in which W^1 is the averaged tumor weight per mouse in the control group and W^2 is the averaged tumor weight per mouse in the test group. [formula]
For comparison, similar animal tests were undertaken with FT-207 as a derivative of 5-fluorouracil with the dose amount at one time increased to 130 mg.

[2] = tested on: B-16 melanoma cells; assay: In vitro tissue culture test of tumor cell growth inhibition; format: cell-based; conditions: Mus musculus, B16, Eagle's medium with 10 % calf blood plasma, 37 °C, compound added after 24 hours, three further days
Procedure: (§1) An in vitro test by tissue culture was undertaken for the activity of 2-(2-aminoethylthio)ethyl trimethyl silane against the growth of three kinds of tumor cells. The tumor cells used in the test were Ehrlich's cancer cells, Lewis lung cancer cells and B-16 melanoma cells and each kind of the above tumor cells was cultured in several Eagle's nutrient media admixed with 10 % of calf blood plasma at 37 °C.
(§2) After 24 hours from the start of the culture, 2-(2-amino- ethylthio)ethyl trimethyl silane was added to each of the nutrient media in a different concentration and, after additional three days at the same temperature, the conentration IC50 was determined with which the multiplication of the tumor cells was inhibited in 50 % of the tested groups. The results were as shown below

[3] = tested on: Ehrlich's cancer cells; assay: as above; format: cell-based; conditions: Eagle's medium with 10 % calf blood plasma, 37 °C, compound added after 24 hours, three further days
Procedure: as §1, §2

[4] = tested on: Lewis lung cancer cells; assay: as above; format: cell-based; conditions: Lewis lung carcinoma, Eagle's medium with 10 % calf blood plasma, 37 °C, compound added after 24 hours, three further days
Procedure: as §1, §2

[5] = oral, 100 mg once a day for 5 days from second day
[6] = 1 x 10^5 B-16 cells subcutaneously, oral, 100 mg once a day for 5 days from second day

Compound | inhibition in vivo at 100 mg [1, 5] | further results
C[Si](C)(CCSCCN)CCC(F)(F)F [(CF3CH2CH2)Me2Si-(CH2-)2-S-(-CH2-)2-NH2, 2-(2-aminoethylthio)-ethyl 3,3,3-trifluoropropyl dimethyl silane] | 96.8% | –
CCN(CC)CSCC[Si](CC)(CC)CC [Et3Si-(-CH2)2-S-CH2-NEt2] | 90.5% | –
CC[Si](CC)(CC)CCSCCN [Et3Si-(-CH2-)2-S-(-CH2-)2-NH2, 2-(2-aminoethylthio)ethyl triethyl silane] | 90.8% | –
CCN(CC)CCSCCC[Si](CC)(CC)CC [Et3Si-(-CH2-)3-S-(-CH2-)2-NEt2] | 76.7% | –
CCN(CC)CSCCC[Si](CC)(CC)CC [Et3Si-(-CH2-)3-S-CH2-NEt2] | 84.4% | –
CC[Si](CC)(CC)CSCCN [Et3Si-CH2-S-(-CH2-)2-NH2, (2-aminoethylthio)methyl triethyl silane] | 91.1% | –
CCN(CC)CSC[Si](CC)(CC)CC [Et3Si-CH2-S-CH2-NEt2] | 81.7% | –
O=c1[nH]c(=O)n(C2CCCO2)cc1F (stereo not drawn) [FT-207, reference compound] | – | Tumor inhibiting efficiency ([1]; comparison, B-16 cells subcutaneously, dose at one time 130 mg): 20.5%
C[Si](C)(C)CCSCCN [Me3Si-(-CH2-)2-S-(-CH2-)2-NH2, 2-(2-aminoethylthio)ethyl trimethyl silane] | 95.6% | IC50 [2]: 18 µg/mL (≈ 101 µM); IC50 [3]: 12 µg/mL (≈ 67.6 µM); IC50 [4]: 14 µg/mL (≈ 78.9 µM)
C[Si](C)(C)CCSCCN [Me3Si-(-CH2-)2-S-(-CH2-)2-NH2·CH3COOH] | – | Tumor inhibiting efficiency [1, 6]: 95.0%
C[Si](C)(C)CCSCCN [Me3Si-(-CH2-)2-S-(-CH2-)2-NH2·HCl, hydrochloride of 2-(2-aminoethylthio)ethyl trimethyl silane] | – | Tumor inhibiting efficiency [1, 6]: 97.9%
CCN(CC)CSCC[Si](C)(C)C [Me3Si-(-CH2-)2-S-CH2-NEt2] | 89.2% | –
C[Si](C)(C)CCCSCCN [Me3Si-(-CH2-)3-S-(-CH2-)2-NH2, 3-(2-aminoethylthio)propyl trimethyl silane] | 93.9% | –
CCN(CC)CSCCC[Si](C)(C)C [Me3Si-(-CH2-)3-S-CH2-NEt2] | 83.9% | –
CCN(CC)CSCC[Si](C)(CC)CC [Me·Et2Si-(-CH2-)2-S-CH2-NEt2] | 86.9% | –
CCN(CC)CSC[Si](C)(CC)CC [Me·Et2Si-CH2-S-CH2-NEt2] | 86.5% | –
C[Si](C)(CCSCCN)c1ccccc1 [Ph·Me2Si-(-CH2-)2-S-(-CH2-)2-NH2, 2-(2-aminoethylthio)ethyl phenyl dimethyl silane] | 82.6% | –
C=C[Si](C)(C)CCSCCN [Vi·Me2Si-(-CH2-)2-S-(-CH2-)2-NH2, 2-(2-aminoethylthio) ethyl vinyl dimethyl silane] | 95.7% | –
